# In PMC8466238, “Development of High Affinity Calcitonin Analog Fragments Targeting Extracellular Domains of Calcitonin Family Receptors” (Biomolecules, 2021):
# Where two headings read alike, the source gives them in different places. Where a SMILES comes first, the peptide text is derived from it. Where no end group is shown, it is not given here. [ ]: non-standard residue; d: D form. The star is where a group is joined. FITC = O=C1OC2(c3ccc(O)cc3Oc3cc(O)ccc32)c2ccc(NC(=S)*)cc21; Hyp = O=C(O)[C@@H]1C[C@@H](O)CN1; Ahx = NCCCCCC(=O)O
# T1: AMY receptor 3 ECD (RAMP3-CTR ECD fusion protein) (Homo sapiens, UniProt O60896+P30988)
# T1 construct: pHLsec/hRAMP3.25–112-(GSA)3-hCTR.34–141-H6 (H-pSL001); H6 (His6) (C); made in house; host or cells: HEK293S GnTI−
# T1 sequence (O60896+P30988 with tags, fused parts or gaps): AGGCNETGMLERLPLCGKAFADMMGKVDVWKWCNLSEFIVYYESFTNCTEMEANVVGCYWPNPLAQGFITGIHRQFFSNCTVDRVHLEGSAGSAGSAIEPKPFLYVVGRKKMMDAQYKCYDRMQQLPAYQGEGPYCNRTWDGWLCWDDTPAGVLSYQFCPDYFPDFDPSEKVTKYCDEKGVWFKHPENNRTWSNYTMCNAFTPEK
# T2: CTR ECD (Homo sapiens, UniProt P30988)
# T2 construct: pHLsec/hCTR.34–141-H6 (H-pSL003); H6 (His6) (C); made in house; host or cells: HEK293T
# T2 sequence (P30988 34-141): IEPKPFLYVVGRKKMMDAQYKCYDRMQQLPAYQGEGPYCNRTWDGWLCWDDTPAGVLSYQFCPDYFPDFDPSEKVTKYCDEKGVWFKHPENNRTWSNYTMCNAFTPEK
# T3: FITC-labeled AC413(6–25) with Y25P mutation (Y25P (stands in the printed letters), FITC-(Ahx) (aminohexanoic acid) on the N-terminus; C-terminal amide)
# T3 construct: residues 6-25 of AC413, an antagonistic amylin peptide analog, with Y25P; peptide probe of the FP assay with the AMY receptor ECDs; also called FITC-AC413(6–25) Y25P; source: synthetic peptide (Genscript, HPLC-purified)
# T3 peptide: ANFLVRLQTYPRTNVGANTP
# What was measured:
# [1] = molecular target: T1, AMY receptor 3 ECD (RAMP3-CTR ECD fusion protein); test: FP competition peptide binding assay with AMY receptor 3 ECD, FITC-AC413(6–25) Y25P probe; settings: Figure 5g; RAMP3-CTR ECD fusion protein 252 nM, FITC-AC413(6–25) Y25P 10 nM; mean ± SD of N = 3; read-out: pKI Mean ± SD (converted)
# From the text: (§1) The overall procedures of FP peptide binding assay with receptor ECDs and FITC-labeled peptide probes were previously described. […] A SpectraiD5 (Molecular Devices, San Jose, CA, USA) was used to measure fluorescence polarization/anisotropy. Background (reaction buffer only) was subtracted for anisotropy calculation. For the SpectraiD5, G factor (0.38 for FITC-sCT(22–32) and 0.41 for FITC-AC413(6–25) and FITC-AC413(6–25) Y25P) was used to correct the instrumental bias for anisotropy calculation. The polarization (mP) of the FITC-peptide probes only (No receptor ECD) was set close to 50 mP. For the saturation binding assay, the anisotropy values were re-calculated when total fluorescence intensity was changed by more than 10% as previously described. […] Anisotropy values were used to produce non-linear regression curves with PRISM 5.0 (GraphPad software, San Diego, CA, USA) as previously described. KI indicates affinity values obtained from competition binding assay and it was calculated from the non-linear regression curves of anisotropy by using equations previously described. Concentrations of the FITC-labeled peptide and the total receptor protein and the affinity of the FITC-labeled peptide for the receptor protein were incorporated into the equations for the KI calculation of the competitive peptide ligand. Two technical replicates were used for each receptor concentration in the peptide-binding curve. SEM of the anisotropy values of the two replicates at each receptor concentration were presented as error bars in the representative peptide-binding curves. When the error bars were shorter than the height of the symbol, they were omitted in the representative curves. At least three independent peptide binding experiments were performed to obtain three independent peptide-binding curves. Mean and standard deviation of peptide ligand affinity were calculated from them.
# [2] = molecular target: T4, AMY receptor 1 ECD (RAMP1-CTR ECD fusion protein) (Homo sapiens, UniProt O60894+P30988); test: FP competition peptide binding assay with AMY receptor 1 ECD, FITC-AC413(6–25) Y25P probe; settings: Figure 5e; RAMP1-CTR ECD fusion protein 77 nM, FITC-AC413(6–25) Y25P 10 nM; mean ± SD of N = 3; read-out: pKI Mean ± SD (converted)
# T4 construct: pHLsec/hRAMP1.24–111-(GSA)3-hCTR.34–141-H6 (H-pSL005); H6 (His6) (C); made in house; host or cells: HEK293T
# From the text: as §1
# CTR ECD = molecular target: T2, CTR ECD; test: FP competition peptide binding assay with purified CTR ECD, FITC-sCT(22–32) probe; settings: CTR ECD 500 nM, FITC-sCT(22–32) 10 nM
# From the text: as §1
# [3] = molecular target: T5, AMY receptor 2 ECD (RAMP2-CTR ECD fusion protein) (Homo sapiens, UniProt O60895+P30988); test: FP competition peptide binding assay with AMY receptor 2 ECD, FITC-AC413(6–25) Y25P probe; settings: Figure 5f; RAMP2-CTR ECD fusion protein 67 nM, FITC-AC413(6–25) Y25P 10 nM; mean ± SD of N = 3; read-out: pKI Mean ± SD (converted)
# T5 construct: pHLsec/hRAMP2.55–140-(GSA)3-hCTR.34–141-H6 (H-pSL006); H6 (His6) (C); made in house; host or cells: HEK293T
# From the text: as §1
# [4] = tested on: RAMP3-CTR ECD fusion protein; test: FP peptide binding assay of FITC-labeled probes with CTR ECD alone and RAMP3-CTR ECD fusion protein (Figure S1D); parameters: species or system human; settings: FP binding with rising receptor ECD concentration
# Procedure: HEK293S GnTI^− cells were used to express the RAMP3-CTR ECD fusion protein. The general procedures of receptor ECD expression and purification from HEK293S GnTI^− cells were previously described. HEK293S GnTI^− cells were transiently transfected with the DNA expression vector (H-pSL001) using polyethylenimine (PEI) at 1:1.5 ratio (DNA:PEI, w/w). Transfected cells were incubated for 4 days at 37 °C. All protein purification was performed at 4 °C unless otherwise noted. Cell culture media were collected and dialyzed to dialysis buffer overnight. The next day, dialyzed cell culture media were loaded to IMAC chromatography. Peak fractions from IMAC chromatography were spin-concentrated (MWCO 10 kDa) and injected into SEC. […]
# The overall procedures of FP peptide binding assay with receptor ECDs and FITC-labeled peptide probes were previously described. […] A SpectraiD5 (Molecular Devices, San Jose, CA, USA) was used to measure fluorescence polarization/anisotropy. […] For the saturation binding assay, the anisotropy values were re-calculated when total fluorescence intensity was changed by more than 10% as previously described. However, effects of fluorescence intensity changes on the affinity values (KI) obtained from the competition binding assay was reported to be minimum and re-calculation of anisotropy was not applied. […] Mean and standard deviation of peptide ligand affinity were calculated from them. […]
# [5] = molecular target: T3, FITC-labeled AC413(6–25) with Y25P …; test: fluorescence polarisation; saturation binding: FITC-labeled peptide probe (10 nM) with rising receptor ECD concentrations; receptor ECD concentration at half of the maximal anisotropy; settings: both partners purified
# [6] = Figure 4b experiment set, mean ± SD of N = 3 (N = 4 for sCT(22–32)) independent experiments, read-out: pKI Mean ± SD (converted)
# [7] = Figure 1d experiment set, mean ± SD of N = 3 independent experiments, pKI = –log10[KI] (M)
Molecule,Ki [1],Ki [2],Ki (CTR ECD; [6]),Ki [3],receptor ECD concentration that produced a half of the maximal anisotropy with the peptide probe [5],also measured
"{FITC-Ahx}-ANFLVRLQTYPRTNVGANTP-NH2 [FITC-AC413(6–25) Y25P, FITC-labeled AC413(6–25) with Y25P mutation, probe for AMY receptor ECDs]",–,–,–,–,–,affinity for the RAMP3-CTR ECD fusion protein compared to FITC-labeled AC413(6–25) [4]: great affinity increase
"{FITC-Ahx}-ANFLVRLQTYPRTNVGANTY-NH2 [FITC-AC413(6–25), FITC-labeled fragment of the antagonistic amylin analog AC413, peptide probe]",–,–,–,–,–,binding for the RAMP3-CTR ECD fusion protein over CTR ECD alone [4]: selective binding
"RAMP3-CTR ECD fusion protein (hRAMP3.25–112-(GSA)3-hCTR.34–141-H6) (receptor, human, human receptor activity-modifying protein 3 (RAMP3), extracellular domain, residues 25-112; linker, printed as (GSA)3; human calcitonin receptor (CTR), extracellular domain, residues 34-141; Secreted from a pHLsec-based vector; also called AMY receptor 3 ECD; RAMP3 ECD-CTR ECD fusion protein; source: HEK293S GnTI-, transiently transfected (PEI), secreted to cell culture media, purified (IMAC, SEC)) AGGCNETGMLERLPLCGKAFADMMGKVDVWKWCNLSEFIVYYESFTNCTEMEANVVGCYWPNPLAQGFITGIHRQFFSNCTVDRVHLEGSAGSAGSAIEPKPFLYVVGRKKMMDAQYKCYDRMQQLPAYQGEGPYCNRTWDGWLCWDDTPAGVLSYQFCPDYFPDFDPSEKVTKYCDEKGVWFKHPENNRTWSNYTMCNAFTPEK",–,–,–,–,252 nM,–
"RAMP1-CTR ECD fusion protein (hRAMP1.24–111-(GSA)3-hCTR.34–141-H6) (receptor, human, human receptor activity-modifying protein 1 (RAMP1), extracellular domain, residues 24-111; linker, printed as (GSA)3; human calcitonin receptor (CTR), extracellular domain, residues 34-141; Secreted from a pHLsec-based vector; also called AMY receptor 1 ECD; RAMP1 ECD-CTR ECD fusion; source: HEK293T, transiently transfected, secreted to cell culture media, purified (IMAC, SEC)) TTACQEANYGALLRELCLTQFQVDMEAVGETLWCDWGRTIRSYRELADCTWHMAEKLGCFWPNAEVDRFFLAVHGRYFRSCPISGRAVGSAGSAGSAIEPKPFLYVVGRKKMMDAQYKCYDRMQQLPAYQGEGPYCNRTWDGWLCWDDTPAGVLSYQFCPDYFPDFDPSEKVTKYCDEKGVWFKHPENNRTWSNYTMCNAFTPEK",–,–,–,–,77 nM,–
"RAMP2-CTR ECD fusion protein (hRAMP2.55–140-(GSA)3-hCTR.34–141-H6) (receptor, human, human receptor activity-modifying protein 2 (RAMP2), extracellular domain, residues 55-140; linker, printed as (GSA)3; human calcitonin receptor (CTR), extracellular domain, residues 34-141; Secreted from a pHLsec-based vector; also called AMY receptor 2 ECD; RAMP2 ECD-CTR ECD fusion; source: HEK293T, transiently transfected, secreted to cell culture media, purified (IMAC, SEC)) GGTVKNYETAVQFCWNHYKDQMDPIEKDWCDWAMISRPYSTLRDCLEHFAELFDLGFPNPLAERIIFETHQIHFANCSLVQPTFSDGSAGSAGSAIEPKPFLYVVGRKKMMDAQYKCYDRMQQLPAYQGEGPYCNRTWDGWLCWDDTPAGVLSYQFCPDYFPDFDPSEKVTKYCDEKGVWFKHPENNRTWSNYTMCNAFTPEK",–,–,–,–,67 nM,–

# Now from value to molecule, other results behind:
Ki [1],Ki [2],Ki (CTR ECD; [6]),Ki [3],receptor ECD concentration that produced a half of the maximal anisotropy with the peptide probe [5],Molecule,also measured
117 nM,123 nM,9.55e-08 M,339 nM,–,C[C@@H](O)[C@H](NC(=O)[C@H](CC(=O)O)NC(=O)[C@@H](NC(=O)[C@H](CCCNC(=N)N)NC(=O)[C@@H]1CCCN1C(=O)[C@@H](N)Cc1ccc(O)cc1)[C@@H](C)O)C(=O)NCC(=O)N1CCC[C@H]1C(=O)NCC(=O)N[C@H](C(=O)N1C[C@H](O)C[C@H]1C(N)=O)[C@@H](C)O [sCT(22–32) N26D/S29P/P32HYP] (H-YPRTDTGPGT[Hyp]-NH2),–
1000 nM,891 nM,8.91e-07 M,1410 nM,–,C[C@@H](O)[C@H](NC(=O)[C@H](CC(N)=O)NC(=O)[C@@H](NC(=O)[C@H](CCCNC(=N)N)NC(=O)[C@@H]1CCCN1C(=O)[C@@H](N)Cc1ccc(O)cc1)[C@@H](C)O)C(=O)NCC(=O)N[C@@H](CO)C(=O)NCC(=O)N[C@H](C(=O)N1C[C@H](O)C[C@H]1C(N)=O)[C@@H](C)O [sCT(22–32) P32HYP] (H-YPRTNTGSGT[Hyp]-NH2),–
331 nM,380 nM,–,468 nM,–,YPRTDTGPGTP-NH2 [sCT(22–32) N26D/S29P],"Ki (CTR ECD; Figure 3b experiment set, mean ± SD of N = 3 independent experiments, read-out: pKI Mean ± SD (converted)): 2.4e-07 M; Ki (CTR ECD; [7]): 3.16e-07 M"
2570 nM,2570 nM,2.04e-06 M,2820 nM,–,"YPRTNTGSGTP-NH2 [sCT(22–32), reference compound]",Ki (CTR ECD; [7]): 1.78e-06 M
